Values joined by “and” are separate entries in the source; they are usually repeats but may differ in a detail not shown here. Identical values can stand only once. Inconclusive results and toxic doses are left out. Cut-off read from the data, not from the text of the source: active = T/C of 150% or more; inactive = T/C below 125%. Square brackets hold non-standard residues; d marks the D form. Peptide text beside a SMILES is read from it. * marks the point of attachment. ξ: configuration not given here. Cbz = O=C(OCc1ccccc1)*; OBn = c1ccc(CO*)cc1; ξP = O=C(O)C1CCCN1
System: L1210 leukemia ip in BDF1 mice, survival T/C
Experiment: NCI In Vivo Anticancer Drug Screen. Data for tumor model L1210 Leukemia (intraperitoneal) in B6D2F1 (BDF1) mice
Details: endpoint: mean survival time, higher = longer survival
Procedure, shortened: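 Read-out is survival time, reported as the treated-group measurement over the vehicle-control measurement.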

[1] = dose: 100.0 mg/kg/injection, schedule: Q04DX002 (ip), vehicle: saline with Tween-80
[2] = dose: 200.0 mg/kg/injection, schedule: Q04DX002 (ip), vehicle: saline with Tween-80
[3] = dose: 400.0 mg/kg/injection, schedule: Q04DX002 (ip), vehicle: saline with Tween-80
[4] = dose: 100.0 mg/kg/injection, schedule: Q01DX001 (ip), vehicle: carboxymethylcellulose (CMC)
[5] = dose: 200.0 mg/kg/injection, schedule: Q01DX001 (ip), vehicle: carboxymethylcellulose (CMC)
[6] = dose: 400.0 mg/kg/injection, schedule: Q01DX001 (ip), vehicle: carboxymethylcellulose (CMC)
[7] = dose: 100.0 mg/kg/injection, schedule: Q01DX009 (ip), vehicle: Klucel (hydroxypropylcellulose) (HPC)
[8] = dose: 200.0 mg/kg/injection, schedule: Q01DX009 (ip), vehicle: Klucel (hydroxypropylcellulose) (HPC)
[9] = dose: 400.0 mg/kg/injection, schedule: Q01DX009 (ip), vehicle: Klucel (hydroxypropylcellulose) (HPC)
[10] = dose: 100.0 mg/kg/injection, schedule: Q04DX003 (ip), vehicle: Klucel (hydroxypropylcellulose) (HPC)
[11] = dose: 200.0 mg/kg/injection, schedule: Q04DX003 (ip), vehicle: Klucel (hydroxypropylcellulose) (HPC)
[12] = dose: 400.0 mg/kg/injection, schedule: Q04DX003 (ip), vehicle: Klucel (hydroxypropylcellulose) (HPC)
[13] = dose: 100.0 mg/kg/injection, schedule: Q04DX003 (ip), vehicle: saline with Tween-80
[14] = dose: 200.0 mg/kg/injection, schedule: Q04DX003 (ip), vehicle: saline with Tween-80
[15] = dose: 25.0 mg/kg/injection, schedule: Q01DX009 (ip), vehicle: saline with Tween-80
[16] = dose: 50.0 mg/kg/injection, schedule: Q01DX009 (ip), vehicle: saline with Tween-80
[17] = dose: 100.0 mg/kg/injection, schedule: Q01DX009 (ip), vehicle: saline with Tween-80
[18] = dose: 100.0 mg/kg/injection, schedule: Q01DX001 (ip), vehicle: saline
[19] = dose: 200.0 mg/kg/injection, schedule: Q01DX001 (ip), vehicle: saline
[20] = dose: 400.0 mg/kg/injection, schedule: Q01DX001 (ip), vehicle: saline
[21] = dose: 50.0 mg/kg/injection, schedule: Q04DX002 (ip), vehicle: saline with Tween-80
[22] = dose: 100.0 mg/kg/injection, schedule: Q04DX003 (ip), vehicle: saline
[23] = dose: 200.0 mg/kg/injection, schedule: Q04DX003 (ip), vehicle: saline
[24] = dose: 400.0 mg/kg/injection, schedule: Q04DX003 (ip), vehicle: saline
[25] = dose: 200.0 mg/kg/injection, schedule: Q01DX009 (ip), vehicle: saline with Tween-80
[26] = dose: 400.0 mg/kg/injection, schedule: Q01DX009 (ip), vehicle: saline with Tween-80
[27] = dose: 25.0 mg/kg/injection, schedule: Q04DX003 (ip), vehicle: saline with Tween-80
[28] = dose: 50.0 mg/kg/injection, schedule: Q04DX003 (ip), vehicle: saline with Tween-80

Measured: T/C

O=S(=O)(O)CCC(O)S(=O)(=O)O (stereo not drawn)
inactive: dose: 100.0 mg/kg/injection, schedule: Q04DX002 (ip), vehicle: Klucel (hydroxypropylcellulose) (HPC) 98 % of control | dose: 200.0 mg/kg/injection, schedule: Q04DX002 (ip), vehicle: Klucel (hydroxypropylcellulose) (HPC) 92 % of control | dose: 400.0 mg/kg/injection, schedule: Q04DX002 (ip), vehicle: Klucel (hydroxypropylcellulose) (HPC) 92 % of control

CCCC(P(c1ccccc1)c1ccccc1)P(=O)(c1ccccc1)c1ccccc1 (stereo not drawn)
inactive: [1] 94 % of control | [2] 94 % of control | [3] 94 % of control

Cc1cc(C)c(OC2=C(c3c(C)cc(C)cc3C)C(=O)c3ccccc32)c(C)c1
inactive: [4] 91 % of control | [5] 89 % of control | [6] 96 % of control

O=C(Nc1ccc(Cl)cc1Cl)Sc1ccc(Cl)cc1
inactive: [7] 91 % of control | [8] 96 % of control | [9] 88 % of control

O=C(NCC(=O)N1CCCC1C(=O)OCc1ccccc1)OCc1ccccc1 (stereo not drawn) (Cbz-Gly-[ξP]-OBn)
inactive: [10] 106 % of control | [11] 106 % of control | [12] 102 % of control

CC(C)=CCn1c(=O)c2c(ncn2C)n(C)c1=O
inactive: [13] 98 % of control | [14] 98 % of control

Fc1ccc(Nc2c3ccccc3nc3ccccc23)cc1
inactive: [15] 92 % of control | [16] 118 % of control | [17] 116 % of control

CCN(CC)CCOC(=O)c1cc2ccccc2s1
inactive: [18] 94 % of control | [19] 102 % of control | [20] 96 % of control

C=CCC(O)CCCCC (stereo not drawn)
inactive: dose: 50.0 mg/kg/injection, schedule: Q01DX001 (ip), vehicle: carboxymethylcellulose (CMC) 101 % of control | [4] 92 % of control | [5] 97 % of control | [6] 106 % of control

Oc1ccccc1CNc1ccc(Br)cc1
inactive: dose: 100.0 mg/kg/injection, schedule: Q04DX003 (ip), vehicle: gum acacia 95 % of control | dose: 200.0 mg/kg/injection, schedule: Q04DX003 (ip), vehicle: gum acacia 95 % of control | dose: 400.0 mg/kg/injection, schedule: Q04DX003 (ip), vehicle: gum acacia 93 % of control

O=C(O)c1c(Cl)[nH]c2ccccc12
inactive: [21] 101 % of control | [1] 97 % of control | [2] 89 % of control

CCCCC(CC)(CCC)CCN (stereo not drawn)
inactive: dose: 5.0 mg/kg/injection, schedule: Q01DX001 (ip), vehicle: carboxymethylcellulose (CMC) 100 % of control | dose: 10.0 mg/kg/injection, schedule: Q01DX001 (ip), vehicle: carboxymethylcellulose (CMC) 110 % of control | dose: 20.0 mg/kg/injection, schedule: Q01DX001 (ip), vehicle: carboxymethylcellulose (CMC) 100 % of control

O=C(Nc1ccccc1)c1ccc(N(CO)CO)cc1
inactive: [18] 98 % of control | [22] 94 % of control | [19] 101 % of control | [23] 120 % of control | [20] 93 % of control | [24] 96 % of control

NC1(C(=O)c2ccccc2)CC2CCC1C2 (stereo not drawn)
inactive: [10] 101 % of control | [11] 98 % of control | [12] 103 % of control

Cc1cc(-c2ccc([N+](=O)[O-])cc2)cn1-c1ccccc1
inactive: [21] 97 % of control | [1] 97 % of control and 89 % of control | [2] 87 % of control | [3] 96 % of control

CCOC(=O)C1CC(C(=O)OCC)c2nc3ccccc3nc21 (stereo not drawn)
inactive: dose: 50.0 mg/kg/injection, schedule: Q01DX001 (ip), vehicle: other 88 % of control | dose: 100.0 mg/kg/injection, schedule: Q01DX001 (ip), vehicle: other 92 % of control and 86 % of control | dose: 200.0 mg/kg/injection, schedule: Q01DX001 (ip), vehicle: other 89 % of control | dose: 400.0 mg/kg/injection, schedule: Q01DX001 (ip), vehicle: other 92 % of control

Cc1nn2c(=O)[nH]cnc2c1Cl
inactive: [17] 108 % of control | [13] 91 % of control | [25] 108 % of control | [14] 89 % of control | [26] 105 % of control | dose: 400.0 mg/kg/injection, schedule: Q04DX003 (ip), vehicle: saline with Tween-80 92 % of control

CSC(SC)=C(C#N)C#N
inactive: dose: 25.0 mg/kg/injection, schedule: Q04DX002 (ip), vehicle: saline 101 % of control

CN1CCN(CCSC(=O)C(O)(c2ccccc2)C2CCCC2)CC1 (stereo not drawn)
inactive: dose: 150.0 mg/kg/injection, schedule: Q01DX001 (ip), vehicle: saline 102 % of control

COC(=O)C(=O)NCc1cnccn1
inactive: dose: 100.0 mg/kg/injection, schedule: Q01DX009 (ip), vehicle: saline 105 % of control | [22] 93 % of control | dose: 200.0 mg/kg/injection, schedule: Q01DX009 (ip), vehicle: saline 110 % of control | [23] 107 % of control | dose: 400.0 mg/kg/injection, schedule: Q01DX009 (ip), vehicle: saline 111 % of control | [24] 100 % of control

CCOC(=O)C1(c2cc(NS(=O)(=O)c3ccccc3)ccc2O)CCCCC1=O (stereo not drawn)
inactive: dose: 50.0 mg/kg/injection, schedule: Q01DX001 (ip), vehicle: saline sonified 97 % of control | dose: 100.0 mg/kg/injection, schedule: Q01DX001 (ip), vehicle: saline sonified 93 % of control | dose: 200.0 mg/kg/injection, schedule: Q01DX001 (ip), vehicle: saline sonified 94 % of control

CC(=O)NC(CCSCc1c2ccccc2c(C)c2c1ccc1ccccc12)C(=O)O (stereo not drawn)
inactive: [25] 92 % of control | [26] 90 % of control

COc1cc(NC(C)CCCN)c2ncccc2c1 (stereo not drawn)
inactive: [27] 104 % of control | [28] 95 % of control | [13] 95 % of control and 105 % of control

O=C(/C=C/c1ccc(Cl)cc1)c1ccc(Br)cc1
inactive: [7] 94 % of control | [8] 94 % of control | [9] 92 % of control

COc1ccc(CN(CCN(C)C)c2ccccn2)cc1
inactive: dose: 12.5 mg/kg/injection, schedule: Q01DX009 (ip), vehicle: Klucel (hydroxypropylcellulose) (HPC) 97 % of control | dose: 12.5 mg/kg/injection, schedule: Q04DX003 (ip), vehicle: Klucel (hydroxypropylcellulose) (HPC) 94 % of control | dose: 25.0 mg/kg/injection, schedule: Q01DX009 (ip), vehicle: Klucel (hydroxypropylcellulose) (HPC) 94 % of control | dose: 25.0 mg/kg/injection, schedule: Q04DX003 (ip), vehicle: Klucel (hydroxypropylcellulose) (HPC) 93 % of control | dose: 50.0 mg/kg/injection, schedule: Q01DX009 (ip), vehicle: Klucel (hydroxypropylcellulose) (HPC) 93 % of control | dose: 50.0 mg/kg/injection, schedule: Q04DX003 (ip), vehicle: Klucel (hydroxypropylcellulose) (HPC) 93 % of control and 94 % of control

O=C(O)c1ccc2ccc3cccnc3c2n1
inactive: [13] 96 % of control | [14] 113 % of control

COc1ccc(C(=O)/C=C/c2cccc([N+](=O)[O-])c2)cc1
inactive: [16] 97 % of control | [17] 97 % of control | [25] 97 % of control

CCC(C)CCC(C)C1CCC2C3CCC4C=C(OC(C)=O)CCC4(C)C3CCC12C (stereo not drawn)
inactive: [1] 103 % of control | [2] 98 % of control | [3] 98 % of control

CC(C)(Br)C(=O)c1ccc([N+](=O)[O-])o1
inactive: dose: 12.5 mg/kg/injection, schedule: Q01DX009 (ip), vehicle: saline with Tween-80 97 % of control | [15] 104 % of control | [27] 104 % of control | [16] 95 % of control | [28] 96 % of control | [13] 99 % of control and 89 % of control

— PubChem BioAssay AID248 (DTP/NCI, 2004)
